Test results from PubChem BioAssay (NCI).
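These data come from cells grown in 96-well plates and exposed to compound for 48 hours at five concentrations. TGI marks complete inhibition of growth.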

Experiments:
Assay in all cases: growth of human tumour cells (NCI), 48 h
[1] = test system: OVCAR-4 ovarian
[2] = test system: EKVX NSCLC
[3] = test system: A498 renal
[4] = test system: HCT-116 colon
[5] = test system: NCI-H460 lung
[6] = test system: HS 578T breast
[7] = test system: RPMI-8226 leukemia
[8] = test system: BT-549 breast
[9] = test system: SK-MEL-28 melanoma
[10] = test system: MALME-3M melanoma
[11] = test system: SF-268 CNS
[12] = test system: MOLT-4 leukemia
[13] = test system: T-47D breast
[14] = test system: RXF 393 renal
[15] = test system: HL-60(TB) leukemia
[16] = test system: SF-295 CNS
[17] = test system: LOX IMVI melanoma
[18] = test system: SN12C renal
[19] = test system: HCT-15 colon
[20] = test system: M14 melanoma
[21] = test system: MDA-MB-435
[22] = test system: MCF7 breast
[23] = test system: UO-31 renal
[24] = test system: IGROV1 ovarian
[25] = test system: COLO 205 colon
[26] = test system: NCI-H226 lung
[27] = test system: OVCAR-5 ovarian
[28] = test system: DU-145 prostate
[29] = test system: HOP-62 NSCLC
[30] = test system: ACHN renal
[31] = test system: SW-620 colon
[32] = test system: HT29 colon
[33] = test system: U251 CNS
[34] = test system: UACC-257 melanoma
[35] = test system: KM12 colon
[36] = test system: NCI-H522 lung
[37] = test system: SR leukemia
[38] = test system: CCRF-CEM leukemia
[39] = test system: HCC-2998 colon
[40] = test system: OVCAR-8 ovarian
[41] = test system: SNB-19 CNS
[42] = test system: SK-MEL-5 melanoma
[43] = test system: PC-3 prostate
[44] = test system: NCI/ADR-RES ovarian
[45] = test system: K-562 leukemia
[46] = test system: UACC-62 melanoma
[47] = test system: A549 NSCLC
[48] = test system: 786-0 renal
[49] = test system: HOP-92 NSCLC
[50] = test system: SK-OV-3 ovarian
[51] = test system: SNB-75 CNS

CCN(CC)CCC(=O)c1ccc(Cl)c(Cl)c1
TGI [1]: > 100 µM | TGI [2]: > 100 µM | TGI [3]: 76 µM | TGI [4]: 68.3 µM | TGI [5]: > 100 µM | TGI [6]: 45.9 µM | TGI [7]: > 100 µM | TGI [8]: 36.3 µM | TGI [9]: 30.5 µM | TGI [10]: 41.7 µM | TGI [11]: 63.4 µM | TGI [12]: 82.8 µM | TGI [13]: 51.1 µM | TGI [14]: 25.3 µM | TGI [15]: > 100 µM | TGI [16]: > 100 µM | TGI [17]: 30.1 µM | TGI [18]: > 100 µM | TGI [19]: > 100 µM | TGI [20]: > 100 µM | TGI [21]: 30.8 µM | TGI [22]: 28.8 µM | TGI [23]: > 100 µM | TGI [24]: > 100 µM | TGI [25]: 91.4 µM | TGI [26]: > 100 µM | TGI [27]: > 100 µM | TGI [28]: > 100 µM | TGI [29]: > 100 µM | TGI [30]: > 100 µM | TGI [31]: 41.3 µM | TGI [32]: > 100 µM | TGI [33]: > 100 µM | TGI [34]: > 100 µM | TGI [35]: > 100 µM | TGI [36]: 32.8 µM | TGI [37]: 64.2 µM | TGI [38]: 50.5 µM | TGI [39]: > 100 µM | TGI [40]: > 100 µM | TGI [41]: > 100 µM | TGI [42]: 35.5 µM | TGI [43]: > 100 µM | TGI [44]: > 100 µM | TGI [45]: > 100 µM | TGI [46]: 31 µM | TGI [47]: > 100 µM | TGI [48]: 31.9 µM | TGI [49]: 30.6 µM | TGI [50]: > 100 µM | TGI [51]: 80.1 µM
